Tests used:
Assay in all cases: Test D pre-/postemergence controlled growth environment herbicide test
Type in all cases: in vivo
Settings in all cases: scale 0 to 100
[1] = test system: bluegrass (annual bluegrass, Poa annua)
Outline: (§1)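 Pre-emergence treatment on silt loam soil and post-emergence treatment of 1- to 4-leaf plants (2–18 cm) in peat-based medium, compounds in a non-phytotoxic solvent with surfactant. Visual rating against untreated controls after 14–21 d in a controlled environment, scale 0 (no effect) to 100 (complete control).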

[2] = test system: barley, spring (spring barley, Hordeum vulgare)
Outline: as §1

[3] = test system: chamomile (scentless chamomile, Matricaria inodora)
Outline: as §1

[4] = test system: field violet (Viola arvensis)
Outline: as §1

[5] = test system: wheat, spring (spring wheat, Triticum aestivum)
Outline: as §1

[6] = test system: chickweed (common chickweed, Stellaria media)
Outline: as §1

[7] = test system: oilseed rape (Brassica napus)
Outline: as §1

[8] = test system: canarygrass (Phalaris minor)
Outline: as §1

[9] = test system: blackgrass (Alopecurus myosuroides)
Outline: as §1

[10] = test system: lambsquarters (Chenopodium album)
Outline: as §1

[11] = test system: ryegrass, Italian (Italian ryegrass, Lolium multiflorum)
Outline: as §1

## COc1cc(=O)n(-c2ccc(F)cc2)nc1Cc1ccnc(C(F)(F)F)c1 [Compound 17, 2-(4-fluorophenyl)-5-methoxy-6-[[2-(trifluoromethyl)-4-pyridinyl]methyl]-3 (2H)-pyridazinone]
[1]; Postemergence, 31 g ai/ha
  Plant response rating: 5
[1]; Postemergence, 62 g ai/ha
  Plant response rating: 5
[1]; Postemergence, 125 g ai/ha
  Plant response rating: 5
[1]; Postemergence, 250 g ai/ha
  Plant response rating: 10
[1]; Postemergence, 500 g ai/ha
  Plant response rating: 20
[1]; Preemergence, 31 g ai/ha
  Plant response rating: 0
[1]; Preemergence, 62 g ai/ha
  Plant response rating: 0
[1]; Preemergence, 125 g ai/ha
  Plant response rating: 25
[1]; Preemergence, 250 g ai/ha
  Plant response rating: 60
[1]; Preemergence, 500 g ai/ha
  Plant response rating: 85
[2]; Postemergence, 31 g ai/ha
  Plant response rating: 5
[2]; Postemergence, 62 g ai/ha
  Plant response rating: 10
[2]; Postemergence, 125 g ai/ha
  Plant response rating: 15
[2]; Postemergence, 250 g ai/ha
  Plant response rating: 15
[2]; Postemergence, 500 g ai/ha
  Plant response rating: 35
[2]; Preemergence, 31 g ai/ha
  Plant response rating: 15
[2]; Preemergence, 62 g ai/ha
  Plant response rating: 20
[2]; Preemergence, 125 g ai/ha
  Plant response rating: 20
[2]; Preemergence, 250 g ai/ha
  Plant response rating: 70
[2]; Preemergence, 500 g ai/ha
  Plant response rating: 90
[3]; Postemergence, 31 g ai/ha
  Plant response rating: 20
[3]; Postemergence, 62 g ai/ha
  Plant response rating: 40
[3]; Postemergence, 125 g ai/ha
  Plant response rating: 40
[3]; Postemergence, 250 g ai/ha
  Plant response rating: 60
[3]; Postemergence, 500 g ai/ha
  Plant response rating: 60
[3]; Preemergence, 31 g ai/ha
  Plant response rating: 0
[3]; Preemergence, 62 g ai/ha
  Plant response rating: 80
[3]; Preemergence, 125 g ai/ha
  Plant response rating: 95
[3]; Preemergence, 250 g ai/ha
  Plant response rating: 100
[3]; Preemergence, 500 g ai/ha
  Plant response rating: 100
[4]; Postemergence, 31 g ai/ha
  Plant response rating: 60
[4]; Postemergence, 62 g ai/ha
  Plant response rating: 70
[4]; Postemergence, 125 g ai/ha
  Plant response rating: 80
[4]; Postemergence, 250 g ai/ha
  Plant response rating: 100
[4]; Postemergence, 500 g ai/ha
  Plant response rating: 100
[4]; Preemergence, 31 g ai/ha
  Plant response rating: 75
[4]; Preemergence, 62 g ai/ha
  Plant response rating: 85
[4]; Preemergence, 125 g ai/ha
  Plant response rating: 90
[4]; Preemergence, 250 g ai/ha
  Plant response rating: 100
[4]; Preemergence, 500 g ai/ha
  Plant response rating: 100
[5]; Postemergence, 31 g ai/ha
  Plant response rating: 10
[5]; Postemergence, 62 g ai/ha
  Plant response rating: 15
[5]; Postemergence, 125 g ai/ha
  Plant response rating: 20
[5]; Postemergence, 250 g ai/ha
  Plant response rating: 20
[5]; Postemergence, 500 g ai/ha
  Plant response rating: 30
[5]; Preemergence, 31 g ai/ha
  Plant response rating: 0
[5]; Preemergence, 62 g ai/ha
  Plant response rating: 15
[5]; Preemergence, 125 g ai/ha
  Plant response rating: 30
[5]; Preemergence, 250 g ai/ha
  Plant response rating: 70
[5]; Preemergence, 500 g ai/ha
  Plant response rating: 90
[6]; Postemergence, 31 g ai/ha
  Plant response rating: 10
[6]; Postemergence, 62 g ai/ha
  Plant response rating: 40
[6]; Postemergence, 125 g ai/ha
  Plant response rating: 60
[6]; Postemergence, 250 g ai/ha
  Plant response rating: 100
[6]; Postemergence, 500 g ai/ha
  Plant response rating: 100
[6]; Preemergence, 31 g ai/ha
  Plant response rating: 100
[6]; Preemergence, 62 g ai/ha
  Plant response rating: 100
[6]; Preemergence, 125 g ai/ha
  Plant response rating: 100
[6]; Preemergence, 250 g ai/ha
  Plant response rating: 100
[6]; Preemergence, 500 g ai/ha
  Plant response rating: 100
[7]; Postemergence, 31 g ai/ha
  Plant response rating: 50
[7]; Postemergence, 62 g ai/ha
  Plant response rating: 55
[7]; Postemergence, 125 g ai/ha
  Plant response rating: 75
[7]; Postemergence, 250 g ai/ha
  Plant response rating: 85
[7]; Postemergence, 500 g ai/ha
  Plant response rating: 100
[7]; Preemergence, 31 g ai/ha
  Plant response rating: 25
[7]; Preemergence, 62 g ai/ha
  Plant response rating: 25
[7]; Preemergence, 125 g ai/ha
  Plant response rating: 40
[7]; Preemergence, 250 g ai/ha
  Plant response rating: 90
[7]; Preemergence, 500 g ai/ha
  Plant response rating: 90
[8]; Postemergence, 31 g ai/ha
  Plant response rating: 10
[8]; Postemergence, 62 g ai/ha
  Plant response rating: 20
[8]; Postemergence, 125 g ai/ha
  Plant response rating: 20
[8]; Postemergence, 250 g ai/ha
  Plant response rating: 30
[8]; Postemergence, 500 g ai/ha
  Plant response rating: 35
[8]; Preemergence, 31 g ai/ha
  Plant response rating: 0
[8]; Preemergence, 62 g ai/ha
  Plant response rating: 0
[8]; Preemergence, 125 g ai/ha
  Plant response rating: 10
[8]; Preemergence, 250 g ai/ha
  Plant response rating: 30
[8]; Preemergence, 500 g ai/ha
  Plant response rating: 50
[9]; Postemergence, 31 g ai/ha
  Plant response rating: 10
[9]; Postemergence, 62 g ai/ha
  Plant response rating: 10
[9]; Postemergence, 125 g ai/ha
  Plant response rating: 10
[9]; Postemergence, 250 g ai/ha
  Plant response rating: 20
[9]; Postemergence, 500 g ai/ha
  Plant response rating: 50
[9]; Preemergence, 31 g ai/ha
  Plant response rating: 0
[9]; Preemergence, 62 g ai/ha
  Plant response rating: 10
[9]; Preemergence, 125 g ai/ha
  Plant response rating: 30
[9]; Preemergence, 250 g ai/ha
  Plant response rating: 60
[9]; Preemergence, 500 g ai/ha
  Plant response rating: 90
[10]; Postemergence, 31 g ai/ha
  Plant response rating: 10
[10]; Postemergence, 62 g ai/ha
  Plant response rating: 50
[10]; Postemergence, 125 g ai/ha
  Plant response rating: 80
[10]; Postemergence, 250 g ai/ha
  Plant response rating: 95
[10]; Postemergence, 500 g ai/ha
  Plant response rating: 100
[10]; Preemergence, 31 g ai/ha
  Plant response rating: 90
[10]; Preemergence, 62 g ai/ha
  Plant response rating: 95
[10]; Preemergence, 250 g ai/ha
  Plant response rating: 90
[10]; Preemergence, 500 g ai/ha
  Plant response rating: 90
[11]; Postemergence, 31 g ai/ha
  Plant response rating: 10
[11]; Postemergence, 62 g ai/ha
  Plant response rating: 10
[11]; Postemergence, 125 g ai/ha
  Plant response rating: 10
[11]; Postemergence, 250 g ai/ha
  Plant response rating: 15
[11]; Postemergence, 500 g ai/ha
  Plant response rating: 35
[11]; Preemergence, 31 g ai/ha
  Plant response rating: 0
[11]; Preemergence, 62 g ai/ha
  Plant response rating: 0
[11]; Preemergence, 125 g ai/ha
  Plant response rating: 0
[11]; Preemergence, 250 g ai/ha
  Plant response rating: 50
[11]; Preemergence, 500 g ai/ha
  Plant response rating: 80

From US10202361B2, “Pyridazinones as herbicides” (E I DU PONT DE NEMOURS AND COMPANY, priority 2014, dated 2019)
